Data on four molecules can be found in ChEMBL document CHEMBL6092141, “Discovery of a proteolysis targeting chimera (PROTAC) as a potent regulator of FOXP3” (2024).

A short description of assay [1]: Immunomodulatory activity in anti-CD3/CD28-induced C57BL/6 mouse CD4+ T cells isolated from spleen/lymph nodes assessed as reduction in foxp3+ CD4+ IL2/TGF-beta induced T regulatory cells at 1 uM incubated for 72 hrs by fluorescence activated cell sorting analysis (reference value: 32.7 %). The format is functional. The arrangement: scale not given: the % may be the effect or the level left.

For assay [2], the target named is T1, von Hippel-Lindau disease tumor suppressor/Forkhead box protein P3 (Homo sapiens) (UniProt P40337+Q9BZS1). Briefly: PROTAC activity at VHL/Foxp3 (unknown origin) transfected in HEK293T cells assessed as induction of Foxp3 degradation by measuring reduction in protein level at 3 uM incubated for 48 hrs in presence of MG132 by Western blot analysis. It counts as cell-based. A general note: In western blotting, separated proteins are transferred to a membrane and probed.
T1 sequence (P40337 whole entry, looked up): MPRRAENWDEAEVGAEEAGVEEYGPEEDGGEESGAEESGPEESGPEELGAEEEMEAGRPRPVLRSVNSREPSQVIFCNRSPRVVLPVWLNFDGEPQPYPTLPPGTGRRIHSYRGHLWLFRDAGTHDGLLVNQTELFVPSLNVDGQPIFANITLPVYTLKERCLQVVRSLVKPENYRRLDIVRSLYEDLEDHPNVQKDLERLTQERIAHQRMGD
T1 sequence (Q9BZS1 whole entry, looked up): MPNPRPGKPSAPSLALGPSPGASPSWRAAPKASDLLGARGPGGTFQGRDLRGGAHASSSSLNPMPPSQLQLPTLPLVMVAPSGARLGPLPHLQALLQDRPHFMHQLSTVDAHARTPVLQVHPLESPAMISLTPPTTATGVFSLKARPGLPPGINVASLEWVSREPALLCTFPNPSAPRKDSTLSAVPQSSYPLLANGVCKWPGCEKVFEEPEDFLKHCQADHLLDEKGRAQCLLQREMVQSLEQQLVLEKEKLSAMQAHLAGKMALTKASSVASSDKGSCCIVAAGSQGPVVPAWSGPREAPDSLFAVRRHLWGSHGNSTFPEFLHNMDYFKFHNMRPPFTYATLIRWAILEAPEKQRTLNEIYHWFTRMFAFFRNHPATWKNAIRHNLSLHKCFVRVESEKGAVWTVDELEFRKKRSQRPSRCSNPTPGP

Assay [3] in a line: Immunomodulatory activity in anti-CD3/CD28-induced C57BL/6 mouse CD4+ T cells isolated from spleen/lymph nodes assessed as reduction in foxp3+ CD4+ IL2/TGF-beta induced T regulatory cells at 1 uM incubated for 48 hrs by fluorescence activated cell sorting analysis (reference value: 6.56 %). It counts as functional. The arrangement: scale not given: the % may be the effect or the level left.

Assay [4] deals with HeLa. Briefly: Inhibition of HA-tagged Foxp3 (unknown origin) nuclear translocation transfected in human HeLa cells at 1 uM incubated for 24 hrs by DAPI staining based confocal microscopic analysis. The format is cell-based.
Assay [5] is described as follows: Immunomodulatory activity in anti-CD3/CD28-induced C57BL/6 mouse CD4+ T cells isolated from spleen/lymph nodes assessed as reduction in foxp3+ CD4+ IL2/TGF-beta induced T regulatory cells at 3 uM incubated for 72 hrs by fluorescence activated cell sorting analysis (reference value: 32.7 %). It counts as functional. The arrangement: scale not given: the % may be the effect or the level left.

The nature of assay [6]: Immunomodulatory activity in anti-CD3/CD28-induced C57BL/6 mouse CD4+ T cells isolated from spleen/lymph nodes assessed as reduction in foxp3+ CD4+ IL2/TGF-beta induced T regulatory cells at 2 uM incubated for 72 hrs by fluorescence activated cell sorting analysis (reference value: 32.7 %). The format is functional. The arrangement: scale not given: the % may be the effect or the level left.

A short description of assay [7]: Immunomodulatory activity in anti-CD3/CD28-induced C57BL/6 mouse CD4+ T cells isolated from spleen/lymph nodes assessed as reduction in foxp3+ CD4+ IL2/TGF-beta induced T regulatory cells at 4 uM incubated for 48 hrs by fluorescence activated cell sorting analysis (reference value: 6.56 %). The format is functional. The arrangement: scale not given: the % may be the effect or the level left.

Assay [8] relates to CD4+ T cell. Briefly: Immunomodulatory activity in anti-CD3/CD28-induced C57BL/6 mouse CD4+ T cells isolated from spleen/lymph nodes assessed as increase in IFN-gamma mRNA expression in IL2/TGF-beta induced T regulatory cells measured after 72 hrs by RT-qPCR analysis. The format is functional, cell-based. Background: In qPCR the cycle at which signal appears reflects the starting amount.

For assay [9], the system named is CD4+ T cell. Briefly: Immunomodulatory activity in anti-CD3/CD28-induced C57BL/6 mouse CD4+ T cells isolated from spleen/lymph nodes assessed as increase in IL2 mRNA expression in IL2/TGF-beta induced T regulatory cells measured after 72 hrs by RT-qPCR analysis. The format is functional, cell-based.
Assay [10] concerns the target T1, von Hippel-Lindau disease tumor suppressor/Forkhead box protein P3 (Homo sapiens). Briefly: PROTAC activity at VHL/Foxp3 (unknown origin) transfected in HEK293T cells assessed as induction of Foxp3 degradation by measuring reduction in protein level at 500 to 1000 nM incubated for 24 hrs by Western blot analysis. It counts as cell-based. The conditions noted are these: dose 500-1000 nM.

The test system of assay [11] is CD4+ T cell. Briefly: Immunomodulatory activity in anti-CD3/CD28-induced C57BL/6 mouse CD4+ T cells isolated from spleen/lymph nodes assessed as reduction in Foxp3 mRNA expression in IL2/TGF-beta induced T regulatory cells measured after 72 hrs by RT-qPCR analysis. It counts as functional, cell-based.
A short description of assay [12]: Immunomodulatory activity in anti-CD3/CD28-induced C57BL/6 mouse CD4+ T cells isolated from spleen/lymph nodes assessed as reduction in foxp3+ CD4+ IL2/TGF-beta induced T regulatory cells at 2 uM incubated for 48 hrs by fluorescence activated cell sorting analysis (reference value: 6.56 %). It counts as functional. The arrangement: scale not given: the % may be the effect or the level left.

The target in assay [13] is T1, von Hippel-Lindau disease tumor suppressor/Forkhead box protein P3 (Homo sapiens). Briefly: PROTAC activity at VHL/Foxp3 (unknown origin) transfected in HEK293T cells assessed as induction of Foxp3 degradation by measuring reduction in protein level at 1 uM measured after 24 to 48 hrs by Western blot analysis. The conditions noted are these: time 24-48 hrs. The format is cell-based.

The subject of assay [14] is CD4+ T cell. Briefly: Immunomodulatory activity in anti-CD3/CD28-induced C57BL/6 mouse CD4+ T cells isolated from spleen/lymph nodes assessed as reduction in Foxp3 protein expression in IL2/TGF-beta induced T regulatory cells at 1 to 4 uM measured after 72 hrs by Western blot analysis. It counts as functional, cell-based. The settings on record: dose 1-4 µM.
For assay [15], the system named is HEK293T. Briefly: Inhibition of HA-tagged Foxp3 (unknown origin) nuclear translocation transfected in a HEK293T cells at 1 to 3 uM incubated for 24 hrs by DAPI staining based confocal microscopic analysis. It counts as cell-based. The conditions noted are these: Homo sapiens, dose 1-3 µM.
A short description of assay [16]: Immunomodulatory activity in anti-CD3/CD28-induced C57BL/6 mouse CD4+ T cells isolated from spleen/lymph nodes assessed as reduction in foxp3+ CD4+ IL2/TGF-beta induced T regulatory cells at 4 uM incubated for 72 hrs by fluorescence activated cell sorting analysis (reference value: 32.7 %). The format is functional. The arrangement: scale not given: the % may be the effect or the level left.

In assay [17] the target is T1, von Hippel-Lindau disease tumor suppressor/Forkhead box protein P3 (Homo sapiens). Briefly: PROTAC activity at VHL/Foxp3 (unknown origin) transfected in HEK293T cells assessed as induction of Foxp3 degradation by measuring reduction in protein level at 10 to 1000 nM incubated for 24 hrs by Western blot analysis. The format is cell-based. The settings on record: dose 10-1000 nM.

Assay [18] has as its system HEK293T. Briefly: Inhibition of HA-tagged Foxp3 (unknown origin) nuclear translocation transfected in a HEK293T cells at 50 to 100 uM incubated for 24 hrs by DAPI staining based confocal microscopic analysis. The format is cell-based. The settings on record: Homo sapiens, dose 50-100 µM.

Active and inactive are the calls of the source. No cut-off for these calls is given here. Residues, ends and D or L forms follow the SMILES beside them. *: point of attachment. X1 = Cc1ncsc1-c1ccc(CNC(=O)[C@@H]2C[C@@H](O)CN2C(=O)[C@@H](NC(=O)COCCOCCNC(=O)CCCCCc2cn(CCCC(=O)*)nn2)C(C)(C)C)cc1; X2 = Cc1ncsc1-c1ccc(CNC(=O)[C@@H]2C[C@@H](O)CN2C(=O)[C@@H](NC(=O)CCOCCOCCc2cn(CCCC(=O)*)nn2)C(C)(C)C)cc1; X3 = Cc1ncsc1-c1ccc(CNC(=O)[C@@H]2C[C@@H](O)CN2C(=O)[C@@H](NC(=O)CCCCCc2cn(CCCC(=O)*)nn2)C(C)(C)C)cc1

With `CSCC[C@H](NC(=O)[C@H](C)NC(=O)[C@H](Cc1ccccc1)NC(=O)[C@H](Cc1ccccc1)NC(=O)[C@@H]1CCCN1C(=O)[C@H](Cc1c[nH]c2ccccc12)NC(=O)[C@H](CCSC)NC(=O)[C@H](CCCCN)NC(=O)[C@H](CCCNC(=N)N)NC(=O)[C@H](Cc1ccccc1)NC(=O)[C@H](CO)NC(=O)[C@H](CCC(N)=O)NC(=O)[C@H](Cc1ccccc1)NC(=O)[C@H](CC(=O)O)NC(=O)[C@H](CCCNC(=N)N)NC(=O)CCCn1cc(CCCCCC(=O)NCCOCCOCC(=O)N[C@H](C(=O)N2C[C@H](O)C[C@H]2C(=O)NCc2ccc(-c3scnc3C)cc2)C(C)(C)C)nn1)C(N)=O` (X1-RDFQSFRKMWPFFAM-NH2), the Activity in [1] stood at 28.8%; in assay [3] it was 6.08%; in [5], 20.2%; in assay [6], 25.8%; in assay [7] it was 4.87%; in assay [12], 5.03%. Further, the Activity in [16] is listed as 15.6%. In [2], the result was inactive. Further, the inhibition result in assay [4] was “Active”. For the same molecule, the result in [8], in assay [9], in assay [10], in assay [11], in [13] and in assay [14] was Active. Besides, the inhibition entry in [15] is “Active; Comparable Effect To 100 Um Of P60 Peptide Observed At 1 Um”.

With `CSCC[C@H](NC(=O)[C@H](C)NC(=O)[C@H](Cc1ccccc1)NC(=O)[C@H](Cc1ccccc1)NC(=O)[C@@H]1CCCN1C(=O)[C@H](Cc1c[nH]c2ccccc12)NC(=O)[C@H](CCSC)NC(=O)[C@H](CCCCN)NC(=O)[C@H](CCCNC(=N)N)NC(=O)[C@H](Cc1ccccc1)NC(=O)[C@H](CO)NC(=O)[C@H](CCC(N)=O)NC(=O)[C@H](Cc1ccccc1)NC(=O)[C@H](CC(=O)O)NC(=O)[C@H](CCCNC(=N)N)NC(=O)CCCn1cc(CCOCCOCCC(=O)N[C@H](C(=O)N2C[C@H](O)C[C@H]2C(=O)NCc2ccc(-c3scnc3C)cc2)C(C)(C)C)nn1)C(N)=O` (X2-RDFQSFRKMWPFFAM-NH2), the inhibition result in assay [4] is “inactive”. Further, the result in assay [17] was inactive.

`CSCC[C@H](NC(=O)[C@H](C)NC(=O)[C@H](Cc1ccccc1)NC(=O)[C@H](Cc1ccccc1)NC(=O)[C@@H]1CCCN1C(=O)[C@H](Cc1c[nH]c2ccccc12)NC(=O)[C@H](CCSC)NC(=O)[C@H](CCCCN)NC(=O)[C@H](CCCNC(=N)N)NC(=O)[C@H](Cc1ccccc1)NC(=O)[C@H](CO)NC(=O)[C@H](CCC(N)=O)NC(=O)[C@H](Cc1ccccc1)NC(=O)[C@H](CC(=O)O)NC(=O)[C@H](CCCNC(=N)N)NC(=O)CCCn1cc(CCCCCC(=O)N[C@H](C(=O)N2C[C@H](O)C[C@H]2C(=O)NCc2ccc(-c3scnc3C)cc2)C(C)(C)C)nn1)C(N)=O` (X3-RDFQSFRKMWPFFAM-NH2): the inhibition entry in [4] was “inactive”. Further, the outcome in assay [17] was inactive.

As to H-RDFQSFRKMWPFFAM-OH, the inhibition entry in assay [18] is “Active”.
